Experiments:
MKN45 cells = test: MKN45 cell proliferation assay (Cell-Titer-Glo, 120 h); format: cell-based; settings: for EC50: Homo sapiens, MKN-45, 120 h, Cell-Titer-Glo, growth inhibition, read-out: MKN45 Cell Prolif. 120 hr (EC50); for MKN45 Cell Prolif. 120 hr (Ymin-Obs): minimal percent of DMSO control observed in the concentrations tested
Summary of the method: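 Cells seeded at 400/well onto pre-printed 10-point half-log dilutions (top 1 or 10 uM, 0.1% DMSO final), in triplicate, and grown 120 h at 37 C. Viability by Cell-Titer-Glo luminescence, blank-subtracted and normalised to DMSO; EC50 from four-parameter logistic fit, with observed minimal % of control recorded as Ymin-obs.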

WEE1 = biological target: T1, WEE1 (Homo sapiens, UniProt P30291+Q96SW2); test: WEE1-ePL degradation assay (LentiX-WEE1-ePL-GSPT1-ND cells, InCELL Hunter luminescence, 4 h); format: cell-based; settings: 293T-LentiX WEE1-ePL cells; for 293T-LentiX WEE1-ePL Degradation 4 hr (Ymin): lower limit of the fit (0 = luciferase inhibitor, Ymax = DMSO control); for DC50: read-out: 293T-LentiX WEE1-ePL Degradation 4 hr (EC50)
T1 construct: C-terminal ePL-tagged (DiscoverX, Fremont, CA) full-length WEE1 expression construct; expressed in transfected cells; host or cells: LentiX-HEK293T (Invitrogen), lentiviral transduction; co-expressing GSPT1-GN (G576N, lacking the first 158 amino acids)
Summary of the method: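 Luminescent readout (InCELL Hunter, 30 min RT) of WEE1-ePL levels in transduced HEK293T cells after 4 h compound exposure at 37 °C. Dosing: 10 points, 3-fold steps, top 1 uM or 10 uM. EC50 from four-parameter logistic fit; Ymax set by DMSO.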

| Compound | EC50 (MKN45 cells) | 293T-LentiX WEE1-ePL Degradation 4 hr (Ymin) (WEE1) | DC50 (WEE1) | MKN45 Cell Prolif. 120 hr (Ymin-Obs) (MKN45 cells) |
| --- | --- | --- | --- | --- |
| O=C1CCC(N2Cc3cc(O[C@H]4CCN(Cc5ccc6nc(N7CCCC78CCOCC8)ccc6c5)C4)ccc3C2=O)C(=O)N1 (stereo partly drawn) [3-(5-{[(3S)-1-[(2-{8-oxa-1-azaspiro[4.5]decan-1-yl}quinolin-6-yl)methyl]pyrrolidin-3-yl]oxy}-1-oxo-2,3-dihydro-1H-isoindol-2-yl)piperidine-2,6-dione] | 15.5 nM | 47 | 11.3 nM | 20.2 |
| O=C1CCC(N2Cc3cc(O[C@H]4CCN(Cc5ccc6ncc(F)cc6c5F)C4)ccc3C2=O)C(=O)N1 (stereo partly drawn) [3-(5-{[(3S)-1-[(3,5-difluoroquinolin-6-yl)methyl]pyrrolidin-3-yl]oxy}-1-oxo-2,3-dihydro-1H-isoindol-2-yl)piperidine-2,6-dione] | 38.3 nM | 28.96 | 8.71 nM | 12.86 |
| Cc1cnc2ccc(CN3CC[C@H](Oc4ccc5c(c4)CN(C4CCC(=O)NC4=O)C5=O)C3)c(C)c2c1 (stereo partly drawn) [3-(5-{[(3S)-1-[(3,5-dimethylquinolin-6-yl)methyl]pyrrolidin-3-yl]oxy}-1-oxo-2,3-dihydro-1H-isoindol-2-yl)piperidine-2,6-dione] | 93.8 nM | 39.05 | 7.92 nM | 53.11 |
| Cc1nc2ccc(CN3CC[C@H](Oc4ccc5c(c4)CN(C4CCC(=O)NC4=O)C5=O)C3)cc2cc1F (stereo partly drawn) [3-(5-{[(3S)-1-[(3-fluoro-2-methylquinolin-6-yl)methyl]pyrrolidin-3-yl]oxy}-1-oxo-2,3-dihydro-1H-isoindol-2-yl)piperidine-2,6-dione] | 53.6 nM | 33.29 | 6.95 nM | 18.86 |
| O=C1CCC(N2Cc3cc(O[C@H]4CCN(Cc5ccc6ncc(F)cc6c5)C4)ccc3C2=O)C(=O)N1 (stereo partly drawn) [3-(5-{[(3S)-1-[(3-fluoroquinolin-6-yl)methyl]pyrrolidin-3-yl]oxy}-1-oxo-2,3-dihydro-1H-isoindol-2-yl)piperidine-2,6-dione] | 75.7 nM | 34.66 | 8.72 nM | 19.555 |
| COc1cnc2ccc(CN3CC[C@H](Oc4ccc5c(c4)CN(C4CCC(=O)NC4=O)C5=O)C3)cc2c1 (stereo partly drawn) [3-(5-{[(3S)-1-[(3-methoxyquinolin-6-yl)methyl]pyrrolidin-3-yl]oxy}-1-oxo-2,3-dihydro-1H-isoindol-2-yl)piperidine-2,6-dione] | 19.1 nM | 34 | 3.25 nM | 12.81 |
| Cc1cnc2ccc(CN3CC[C@H](Oc4ccc5c(c4)CN(C4CCC(=O)NC4=O)C5=O)C3)cc2c1 (stereo partly drawn) [3-(5-{[(3S)-1-[(3-methylquinolin-6-yl)methyl]pyrrolidin-3-yl]oxy}-1-oxo-2,3-dihydro-1H-isoindol-2-yl)piperidine-2,6-dione] | 63.5 nM | 38.21 | 4.47 nM | 21.51 |

Continued, in another order:

| EC50 (MKN45 cells) | 293T-LentiX WEE1-ePL Degradation 4 hr (Ymin) (WEE1) | DC50 (WEE1) | Compound | MKN45 Cell Prolif. 120 hr (Ymin-Obs) (MKN45 cells) |
| --- | --- | --- | --- | --- |
| 407 nM | 37.63 | 40.7 nM | Cc1cncc(CN2CC[C@H](Oc3ccc4c(c3)CN(C3CCC(=O)NC3=O)C4=O)C2)c1C (stereo partly drawn) [3-(5-{[(3S)-1-[(4,5-dimethylpyridin-3-yl)methyl]pyrrolidin-3-yl]oxy}-1-oxo-2,3-dihydro-1H-isoindol-2-yl)piperidine-2,6-dione] | 62.92 |
| 392 nM | 32.06 | 4.29 nM | Cc1cc(Cl)c2cc(CN3CC[C@H](Oc4ccc5c(c4)CN(C4CCC(=O)NC4=O)C5=O)C3)ccc2n1 (stereo partly drawn) [3-(5-{[(3S)-1-[(4-chloro-2-methylquinolin-6-yl)methyl]pyrrolidin-3-yl]oxy}-1-oxo-2,3-dihydro-1H-isoindol-2-yl)piperidine-2,6-dione] | 44.06 |
| ≥ 10000 nM | 69.445 | 22.7 nM | Cc1cc(F)c2cc(CN3CC[C@H](Oc4ccc5c(c4)CN(C4CCC(=O)NC4=O)C5=O)C3)ccc2n1 (stereo partly drawn) [3-(5-{[(3S)-1-[(4-fluoro-2-methylquinolin-6-yl)methyl]pyrrolidin-3-yl]oxy}-1-oxo-2,3-dihydro-1H-isoindol-2-yl)piperidine-2,6-dione] | 24.82 |
| > 10000 nM | 73 | 528 nM | Cc1cc(O)c2cc(CN3CC[C@H](Oc4ccc5c(c4)CN(C4CCC(=O)NC4=O)C5=O)C3)ccc2n1 (stereo partly drawn) [3-(5-{[(3S)-1-[(4-hydroxy-2-methylquinolin-6-yl)methyl]pyrrolidin-3-yl]oxy}-1-oxo-2,3-dihydro-1H-isoindol-2-yl)piperidine-2,6-dione] | 87.83 |
| 1500 nM | 44.38 | 26.8 nM | COc1cc(C)nc2ccc(CN3CC[C@H](Oc4ccc5c(c4)CN(C4CCC(=O)NC4=O)C5=O)C3)cc12 (stereo partly drawn) [3-(5-{[(3S)-1-[(4-methoxy-2-methylquinolin-6-yl)methyl]pyrrolidin-3-yl]oxy}-1-oxo-2,3-dihydro-1H-isoindol-2-yl)piperidine-2,6-dione] | 47.92 |
| > 10000 nM | 52 | 24.2 nM | CN1CC(=O)Oc2cc(CN3CC[C@H](Oc4ccc5c(c4)CN(C4CCC(=O)NC4=O)C5=O)C3)ccc21 (stereo partly drawn) [3-(5-{[(3S)-1-[(4-methyl-2-oxo-3,4-dihydro-2H-1,4-benzoxazin-7-yl)methyl]pyrrolidin-3-yl]oxy}-1-oxo-2,3-dihydro-1H-isoindol-2-yl)piperidine-2,6-dione] | 91.915 |
| > 10000 nM | 56 | 47.9 nM | CN1C(=O)COc2ccc(CN3CC[C@H](Oc4ccc5c(c4)CN(C4CCC(=O)NC4=O)C5=O)C3)cc21 (stereo partly drawn) [3-(5-{[(3S)-1-[(4-methyl-3-oxo-3,4-dihydro-2H-1,4-benzoxazin-6-yl)methyl]pyrrolidin-3-yl]oxy}-1-oxo-2,3-dihydro-1H-isoindol-2-yl)piperidine-2,6-dione] | 84.725 |
| 1330 nM | 38.55 | 65.4 nM | Cc1ccnc(CN2CC[C@H](Oc3ccc4c(c3)CN(C3CCC(=O)NC3=O)C4=O)C2)c1 (stereo partly drawn) [3-(5-{[(3S)-1-[(4-methylpyridin-2-yl)methyl]pyrrolidin-3-yl]oxy}-1-oxo-2,3-dihydro-1H-isoindol-2-yl)piperidine-2,6-dione] | 42.67 |
| 166 nM | 43.98 | 13.3 nM | O=C1CCC(N2Cc3cc(O[C@H]4CCN(Cc5cnc6ccc(F)c(F)c6c5)C4)ccc3C2=O)C(=O)N1 (stereo partly drawn) [3-(5-{[(3S)-1-[(5,6-difluoroquinolin-3-yl)methyl]pyrrolidin-3-yl]oxy}-1-oxo-2,3-dihydro-1H-isoindol-2-yl)piperidine-2,6-dione] | 44.73 |
| 955 nM | 35.675 | 25.9 nM | Cc1cc(CN2CC[C@H](Oc3ccc4c(c3)CN(C3CCC(=O)NC3=O)C4=O)C2)cnc1C (stereo partly drawn) [3-(5-{[(3S)-1-[(5,6-dimethylpyridin-3-yl)methyl]pyrrolidin-3-yl]oxy}-1-oxo-2,3-dihydro-1H-isoindol-2-yl)piperidine-2,6-dione] | 43.03 |

Source: patent US20240067632A1, “WEE1 Degrading Compounds and Uses Thereof” (Bristol-Myers Squibb Company, priority 2022, published 2024)
